Article PMC4383039 (Science translational medicine, 2015)
Converted amounts (≈) assume the structure as drawn. “And” between values parts separate entries of the source, which are not always exact repeats. Equal entries are not always repeated.

How the values were obtained:
Format in all cases: cell-based, Mycobacterium tuberculosis
[1] = tested on: 4-hydroxy-2-pyridone resistance mutants of Mtb
[2] = tested on: H37Rv∷pMV262-InhA strains; assay: microbe, parasite or virus in culture; conditions: for MIC50: Mycobacterium tuberculosis, H37RV, read-out: Compound MIC50
[3] = tested on: Mtb H37Rv

Compound: NNC(=O)c1ccncc1 [isoniazid]
- resistance, MIC50 fold [1]: > 3 fold
- MIC50 fold shift with the Mtb H37Rv strain [2]: 0.51 (2.04×)
- MIC50 [2]: 0.51 µM (≈ 0.0699 µg/mL)
- Mutation frequency [3]: ∼ 1× 10^-6

Compound: [H]/N=C(/N)N[C@H]1[C@H](O)[C@@H](O)[C@H](O[C@@H]2O[C@@H](C)[C@](O)(C=O)[C@H]2O[C@@H]2O[C@@H](CO)[C@H](O)[C@@H](O)[C@@H]2NC)[C@@H](N/C(N)=N\[H])[C@@H]1O [streptomycin]
- Compound MIC50 [1]: 0.1 µM and 0.09 µM and 0.08 µM and 0.06 µM
- Compound MIC50 [2]: 0.084 µM and 0.079 µM and 0.075 µM
- MIC50 [2]: 0.074 µM (≈ 0.043 µg/mL)

Compound: CC(C)Cc1cc(O)c(-c2ccccc2)c(=O)[nH]1 [NITD-529, 4-hydroxy-6-isobutyl-3-phenylpyridin-2(1H)-one]
- Compound MIC50 [1]: > 40 µM
- fold more resistant than the parental H37Rv strain [1]: at least 25 fold
- MIC50 [2]: 2.59 µM (≈ 0.63 µg/mL)
- Mutation frequency [3]: 1.2×10^-8
- frequency of resistance [3]: 1 × 10^−8

Compound: CCc1cc(C(N)=S)ccn1 [ethionamide]
- resistance, MIC50 fold [1]: > 3 fold
